Source: the NIST ThermoML archive (doi:10.1016/j.jct.2012.06.020)
± gives the expanded uncertainty stated by the source.

Details: 101.33 kPa, Liquid, Vibrating tube method

C[S+](C)[O-] [dimethyl sulfoxide]
Details | mass density [kg/m3]
293.15 K | 1100.22 ± 1
298.15 K | 1095.19 ± 1
303.15 K | 1090.16 ± 1
313.15 K | 1080.12 ± 1
323.15 K | 1070.07 ± 0.98
333.15 K | 1060.03 ± 0.96
